The source of these data is PubChem BioAssay (NCI).

The structures appear in SMILES notation. Where “and” joins values, the source holds several entries; their conditions need not be identical. Equal entries are not always repeated.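 Cells were grown in 96-well plates and exposed to each compound for 48 hours at five concentrations; endpoints were interpolated linearly between bracketing concentrations, or set to the highest concentration if not reached. GI50 = concentration required for 50% inhibition of growth. TGI is the concentration that stops growth completely.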

Holding throughout (test): growth of human tumour cells (NCI), 48 h
The test system of experiment [1] is OVCAR-8 ovarian.
Experiment [2] relates to CCRF-CEM leukemia.
Experiment [3] concerns SK-MEL-2 melanoma.
Experiment [4] has as its system UACC-62 melanoma.
Experiment [5] deals with SNB-75 CNS.
Experiment [6] concerns ACHN renal.
The test system of experiment [7] is MDA-MB-435.
Experiment [8] relates to MDA-N.
Experiment [9] deals with NCI-H226 lung.
In experiment [10] the test system is RXF 393 renal.
Experiment [11] has as its system SNB-19 CNS.

`CC1OC(OC2C(OC(=O)[C@]34CCC(C)(C)C[C@H]3C3=CC[C@@H]5[C@@]6(C)CC[C@H](OC7OC(C(=O)O)C(O)C(O)C7O)C(C)(C)[C@@H]6CC[C@@]5(C)[C@]3(C)C[C@H]4O)OCC(O)C2O)C(O)C(O)C1OC1OCC(O)C(O)C1O` (some centres undefined): the GI50 in [1] is 13.2 µM and 2.33 µM; in [3] it was 15.4 µM and 3.47 µM; in experiment [7] it was 16 µM and 5.32 µM. The TGI in experiment [1] was 26.5 µM and 5.19 µM; in experiment [2], 36.1 µM and 61.2 µM; in experiment [3] it was 30.4 µM and 12.4 µM; in experiment [4], 32.7 µM and 30.1 µM; in experiment [5], 29.9 µM and 31.3 µM; in experiment [6], 21.5 µM. In addition, the TGI in experiment [7] was 30.3 µM and 18.2 µM; in experiment [8], 27.3 µM and 23.5 µM; in experiment [9] it was 19.2 µM and 25.9 µM; in [10], 35.4 µM and 31.6 µM; in [11], 25.8 µM and 23.8 µM.

On to `CN(C)C(C1=C(O)C(c2ccccc2)N(c2ccccc2)C1=O)N1CCOCC1` (centres undefined), for which the TGI in experiment [1], in experiment [2], in [3], in [4], in [5] and in experiment [6] was greater than 10 µM in each case. In addition, the TGI in [7], in experiment [8], in experiment [9], in experiment [10] and in experiment [11] was greater than 10 µM throughout.

Take `CC[C@]12C=CCN3CC[C@@]4(c5cc(N=O)c(OC)cc5N(C)[C@H]4[C@@](O)(C(=O)OC)[C@@H]1OC(C)=O)[C@@H]32`: the TGI is greater than 100 µM in [1]; 74.1 µM in experiment [2]; 41.7 µM in [3]; greater than 100 µM in [4]; greater than 100 µM in experiment [5]; greater than 100 µM in experiment [6]. Also, the TGI in [7] was 74.8 µM; in experiment [8] it was 48.5 µM; in experiment [9], greater than 100 µM; in [10], greater than 100 µM; in experiment [11], greater than 100 µM.

With `O=c1c2cc(-c3ccccc3)cnc2sn1-c1ccc(Br)cc1`, the TGI in experiment [1], in experiment [2], in experiment [3], in experiment [4], in experiment [5] and in experiment [6] was greater than 100 µM throughout. Moreover, the TGI in [7], in [8], in [9], in [10] and in [11] was greater than 100 µM in each case.

As to `COc1ccc(N=c2oc3ccccc3cc2C(N)=O)cc1`, the TGI in [1] is greater than 100 µM; in experiment [2], greater than 100 µM; in experiment [3], greater than 100 µM; in experiment [4], greater than 100 µM; in [5], greater than 100 µM; in experiment [6], 37.1 µM. Moreover, the TGI in experiment [7] is greater than 100 µM; in experiment [8], greater than 100 µM; in experiment [9], greater than 100 µM; in [10] it was greater than 100 µM; in experiment [11], 24.7 µM.

As for `CNC(=O)C(C)NC(=O)C(Cc1ccccc1)NC(=O)c1ccccc1` (centres undefined), the TGI in experiment [1], in experiment [2], in experiment [3], in [4], in [5] and in [6] was greater than 100 µM throughout. The TGI in [7], in experiment [8], in experiment [9], in experiment [10] and in experiment [11] was greater than 100 µM each time.

Consider `CC(C)CC(NC(=O)C(C)(CI)Cc1ccccc1)C(=O)Nc1ccccc1` (centres undefined), for which the TGI in experiment [1], in [2], in experiment [3], in experiment [4], in experiment [5] and in experiment [6] was greater than 100 µM each time. The TGI in experiment [7], in experiment [8], in experiment [9], in experiment [10] and in experiment [11] was greater than 100 µM each time.

Regarding `CCOC(=O)C(C(=O)OCC)=C1SC(=Nc2ccccc2)C(=Nc2ccccc2)N1c1ccccc1`, the TGI in [1], in experiment [2], in experiment [3], in experiment [4], in experiment [5] and in experiment [6] was greater than 100 µM throughout. Also, the TGI in [7], in experiment [8], in experiment [9], in experiment [10] and in experiment [11] was greater than 100 µM each time.

Regarding `CCOC(=O)c1nc2cc(C(F)(F)F)ccc2nc1Oc1ccc(C#N)cc1`, the TGI in experiment [1], in [2], in [3], in experiment [4], in experiment [5] and in experiment [6] was greater than 100 µM throughout. The TGI in experiment [7], in experiment [8], in experiment [9], in [10] and in experiment [11] was greater than 100 µM throughout.

With `NC1N=C(c2ccc(Cl)cc2)C2=C(N1)c1ccccc1CC2` (centres undefined), the TGI in experiment [1] is greater than 100 µM; in experiment [2], greater than 100 µM; in [3] it was 46.6 µM; in experiment [4], greater than 100 µM; in experiment [5], greater than 22.7 µM; in experiment [6], greater than 100 µM. The TGI was greater than 22.6 µM in experiment [7]; greater than 100 µM in experiment [8]; 54.3 µM in experiment [9]; 50.1 µM in [10]; greater than 100 µM in experiment [11].

`CSC12c3cc(C)n(-c4ccc([N+](=O)[O-])cc4)c3CC(C)(C)CN1C(=O)C2Oc1ccccc1` (centres undefined): the TGI in experiment [1], in experiment [2], in experiment [3], in experiment [4], in experiment [5] and in experiment [6] was greater than 100 µM in each case. Further, the TGI in [7], in [8], in experiment [9], in [10] and in experiment [11] was greater than 100 µM throughout.
